Experimental data as given in US9096536B2, “Asymmetrically substituted anthrapyridazone derivatives as cytostatics” (BS-154 S.P. ZO.O., priority 2011, dated 2015).
Values after ≈ are worked out from the molar mass of the structure shown.

How the values were obtained:
[1] = test system: human promyelocytic leukemia cell line HL-60; test: Cytostatic activity in vitro, HL-60 sensitive line; assay type: cell-based; conditions: 50% inhibition of cell growth after 72 h continuous exposure; read-out: HL60 IC50
Source text: (§1) Tables 3 and 4 show cytostatic activity in vitro of 2,6-disubstituted and 2- or 6-monosubstituted (Tab.3), and of 2,5-disubstituted-(Tab.-4) tetracyclic anthrapyridazone derivatives using leukemia cell line HL-60 and the resistant cell sublines with resistance induced by vincristine (MDR-1) or doxorubicin (MRP). Activity of compounds is differentiated depending on their structure, but in all cases resistance indexes are more advantageous in comparison with reference compounds: doxorubicin and mitoxantrone.

HL60/VINC [2] = test: Cytostatic activity in vitro, vincristine-induced resistant subline (MDR-1); assay type: cell-based, human
Source text: as §1

HL60/DX [3] = test: Cytostatic activity in vitro, doxorubicin-induced resistant subline (MRP); assay type: cell-based, human
Source text: as §1

[4] = test system: human prostate cancer cell line DU145; test: Cytostatic activity in vitro, prostate cancer DU145; assay type: cell-based; conditions: 72 h continuous exposure
Source text: (§2) Table 5 presents activity in vitro of anthrapiridazone derivatives towards three cell lines of prostate cancer, naturally multidrug resistant, in comparison with references doxorubicin, mitoxantrone and taxol.

[5] = test system: human prostate cancer cell line LNCaP; test: Cytostatic activity in vitro, prostate cancer LNCaP; assay type: cell-based; conditions: 72 h continuous exposure
Source text: as §2

[6] = test system: human prostate cancer cell line PC3; test: Cytostatic activity in vitro, prostate cancer PC3; assay type: cell-based; conditions: 72 h continuous exposure
Source text: as §2

[7] = test system: human breast cancer cell line MCF7; test: Cytostatic activity in vitro, breast cancer MCF7; assay type: cell-based; conditions: 72 h continuous exposure
Source text: (§3) It should be mentioned that resistance index is above one order of magnitude better in comparison with doxorubicin and mitoxantrone.

MCF7/DX = test: Cytostatic activity in vitro, resistant breast cancer subline MCF7/DX (MDR-1); assay type: cell-based, human
Source text: as §3

[8] = test system: human colon adenocarcinoma HT29; test: Cytostatic activity in vitro, colon adenocarcinoma HT29; assay type: cell-based; conditions: 72 h continuous exposure
Source text: (§4) Table 7 presents activity in vitro of selected anthrapyridazone derivatives according to the invention towards sensitive and resistant (MDR-1 type) cell line of human colon adenocarcinoma with resistance induced by mitoxantrone.

HT29/MIT = test: Cytostatic activity in vitro, mitoxantrone-induced resistant subline HT29/MIT; assay type: cell-based, human
Source text: as §4

uterus cancer MES-SA = test: Cytostatic activity, panel: uterus cancer MES-SA; assay type: cell-based; conditions: 72 h continuous exposure
Source text: (§5) Tables 8A and 8B present cytostatic activity in vitro of selected anthrapyridazone derivatives according to the invention against panel of sensitive and resistant cell lines, in comparison with doxorubicin, cisplatine and mitoxantrone.

MES-SA/DX5 = test: Cytostatic activity, panel: MES-SA/DX5 resistant to doxorubicin; assay type: cell-based; conditions: for IC50 MES-SA/DX5: 72 h continuous exposure; for RI MES-SA MES-SA/DX5: IC50(resistant cells)/IC50(sensitive cells)
Source text: as §5

colon cancer LoVo = test: Cytostatic activity, panel: colon cancer LoVo; assay type: cell-based; conditions: 72 h continuous exposure
Source text: as §5

LoVo/DX = test: Cytostatic activity, panel: LoVo/DX resistant to doxorubicin; assay type: cell-based; conditions: for IC50 LoVo/DX: 72 h continuous exposure; for RI LoVo LoVo/DX: IC50(resistant cells)/IC50(sensitive cells)
Source text: as §5

[9] = test system: lymphoblastic leukemia CCRF-CEM; test: Cytostatic activity, panel: lymphoblastic leukemia CCRF-CEM; assay type: cell-based; conditions: 72 h continuous exposure
Source text: as §5

CEM/C2 = test: Cytostatic activity, panel: CEM/C2 resistant to camptotecine; assay type: cell-based; conditions: for IC50 CEM/C2: 72 h continuous exposure; for RI CCRF-CEM CEM/C2: IC50(resistant cells)/IC50(sensitive cells)
Source text: as §5

[10] = test system: promyelolytic leukemia HL-60; test: Cytostatic activity, panel: promyelolytic leukemia HL-60; assay type: cell-based; conditions: 72 h continuous exposure
Source text: as §5

HL60/MX2 = test: Cytostatic activity, panel: HL60/MX2 resistant to mitoxantrone; assay type: cell-based; conditions: for IC50 HL60/MX2: 72 h continuous exposure; for RI HL60 HL60/MX2: IC50(resistant cells)/IC50(sensitive cells)
Source text: as §5

CT-DNA = test: Interaction with isolated CT-DNA, fluorescence competition with ethidium bromide; assay type: binding
Source text: It could be supposed that this property explains cytostatic activity of compounds. In Table 9 there are presented quantitative data on the affinity to DNA of tested compounds using the fluorescence method and competitive affinity to DNA of bromine ethydine and tested compounds.

HL60/VINC [11] = test: Substrate properties: activity against HL60/VINC in the presence of cyclosporine A (MDR-1 pump inhibitor); assay type: cell-based, human; conditions: FIG. 2
Source text: FIG. 2 shoes experimentally determined substrate properties of selected antgraoyridazone derivatives vs. Doxorubicin and Mitroxantrone. Activity in vitro against human promyelacytic leykemia cell line HL60/VINC in the presence of cyclosporine A (MDR-1 pump inhibitor).

HL60/DX [12] = test: Substrate properties: activity against HL60/DX in the presence of BSO (MRP pump inhibitor); assay type: cell-based, human; conditions: FIG. 3
Source text: Activity in vitro against human promyelolytic leukemia HL60/DX in the presence of D-L-buthionine-(S,R)-sulphoximine (BSO), MRP pump inhibitor.

SMILES	IC50 MES-SA (uterus cancer MES-SA)	IC50 MES-SA/DX5 (MES-SA/DX5)	RI MES-SA MES-SA/DX5 (MES-SA/DX5)	IC50 LoVo (colon cancer LoVo)	IC50 LoVo/DX (LoVo/DX)	RI LoVo LoVo/DX (LoVo/DX)	IC50 CCRF-CEM [9]	IC50 CEM/C2 (CEM/C2)	RI CCRF-CEM CEM/C2 (CEM/C2)	IC50 HL60 [10]	IC50 HL60/MX2 (HL60/MX2)	RI HL60 HL60/MX2 (HL60/MX2)	also measured
CNCCNc1ccc2c(=O)n(CCN(C)C)nc3c2c1C(=O)c1ccccc1-3 [BS-154, 2-[2-(Dimethyloamino)ethyl]-6-{[2-(methylamino)ethyl]amino}-2,7-dihydro-3H -dibenzo[de,h]cynnoline-3,7-dione]	0.01333 ± 0.00238 µg/mL (≈ 0.0341 µM)	0.03833 ± 0.01136 µg/mL (≈ 0.0979 µM)	2.9	0.00153 ± 0.00102 µg/mL (≈ 0.00391 µM)	0.06842 ± 0.01273 µg/mL (≈ 0.175 µM)	44.7	0.00373 ± 0.00193 µg/mL (≈ 0.00953 µM)	0.00124 ± 0.00137 µg/mL (≈ 0.00317 µM)	0.3	0.00111 ± 0.00002 µg/mL (≈ 0.00284 µM)	0.00545 ± 0.00304 µg/mL (≈ 0.0139 µM)	4.9	IC50 [1]: 0.9 ± 0.1 nM; IC50 (HL60/VINC [2]; 72 h continuous exposure): 8.1 ± 1 nM; RI resistance index HL60/VINC (HL60/VINC [2]; IC50(resistant cells)/IC50(sensitive cells), HL60/VINC vs HL60, 72 h): 9.0; IC50 (HL60/DX [3]; 72 h continuous exposure): 375 ± 41 nM; RI resistance index HL60/DX (HL60/DX [3]; IC50(resistant cells)/IC50(sensitive cells), HL60/DX vs HL60, 72 h): 416.7; IC50 [4]: 3 ± 0.7 nM; IC50 [5]: 2.6 ± 0.3 nM; IC50 [6]: 14 ± 3.3 nM; IC50 [7]: 8.8 ± 0.6 nM; IC50 (MCF7/DX; 72 h continuous exposure): 8.7 ± 1.2 nM; RI resistance index MCF7/DX (MCF7/DX; IC50(resistant cells)/IC50(sensitive cells), MCF7/DX vs MCF7): 1.0; IC50 [8]: 5.2 ± 1.3 nM; IC50 (HT29/MIT; 72 h continuous exposure): 11.2 ± 2.2 nM; RI resistance index HT29/MIT (HT29/MIT; IC50(resistant cells)/IC50(sensitive cells), HT29/MIT vs HT29): 2.1; IC50 (CT-DNA; 50% decrease in fluorescence intensity of DNA-bromide ethydine complex): 290 ± 10 nM; Kapp relative constant of DNA-compound bonding (CT-DNA; Kapp = (1.26/C50) × KEtBr, KEtBr = 10^7M): 4.28e+07 M⁻¹; Effect of blocking MDR-1 pump with cyclosporine A (CSA) on cytostatic activity (HL60/VINC [11]): does not essentially affect the cytostatic activity; Effect of MRP protein inhibitor (BSO) on cytostatic activity (HL60/DX [12]): only partially
N.N.[Cl][Pt][Cl] [Cisplatina]	2.26 ± 0.58 µg/mL	3.29 ± 0.15 µg/mL	1.5	1.59 ± 0.31 µg/mL	2.51 ± 0.38 µg/mL	1.6	1.44 ± 0.49 µg/mL	0.44 ± 0.19 µg/mL	0.3	0.22 ± 0.12 µg/mL	0.56 ± 0.30 µg/mL	2.5	
